From patent US8337447B2, “Device for delivery of antifibrotic agents and method” (priority 2006, dated 2012)

Tested on: human conjunctival fibroblasts
Assay: Polymer cytotoxicity in vitro, toluidine blue staining after 7 days of culture
Type: cell-based
Details: MMC incorporated in salt-free P-HEMA hydrogel (Procedure 2), exponential fit, r2 0.95
Method: Measurement of polymer cytotoxicity in vitro: A single 8 mm disk of sterile polymer was affixed to the center of each 60 mm tissue culture dish with clear RTV silicone cement. The silicone cement was sterile as it came from the tube and care was taken during this procedure to maintain the sterility of both the polymer and the tissue culture dish. The cement was allowed to cure for 1-2 hours in a sterile environment, until no odor of acetic acid could be detected. […] The culture medium was removed and the cell layer was gently washed 3 times with 5 ml of phosphate-buffered saline. […] In some cases, the solutions had to be diluted with 2% aqueous sodium dodecyl sulfate to bring the absorbance within the linear range of the spectrophotometer. […]
Once these parameters had been determined, the study was repeated with early passage cultures human conjunctival fibroblasts, the cell type against which these slow release polymers will ultimately be targeted. […]
A single 8 mm disk of polymer was affixed to each culture dish with silicone cement and cells were fixed and stained 7 days after inoculation, as described in Methods. After solubilization of the cell-bound dye, the color (measured as absorbance at 650 nm) was a measure of the number of cells in each dish. […]

CO[C@@]12[C@H](COC(N)=O)C3=C(C(=O)C(C)=C(N)C3=O)N1C[C@@H]1N[C@@H]12 [MMC, mitomycin C]
concentration of MMC that inhibited 50% of cell proliferation (IC50): 0.15 mg/g dried gel
